The results in this text go back to US9840478B2 (MERCK SHARP & DOHME CORP., priority 2013, dated 2017).

This assay concerns HIV-1 (H9IIIB strain). Nature of the assay: Cell-based HIV infection assay using a reporter (Cell-Based), MT4-GFP cells. To be noted: Human immunodeficiency virus 1, MT4-GFP cells infected with HIV-1 H9IIIB; 50% normal human serum; mean of at least two independent experiments; read-out: Cell-based IP. Summed up:
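MT4-GFP cells (HIV LTR-driven GFP) infected 24 h with HIV-1 H9IIIB at low MOI, then washed and plated with compounds in RPMI + 50% normal human serum, 0.4% DMSO final. Green cells counted at 24 and 48 h; R0 = 48 h/24 h ratio, inhibition normalized to DMSO and triple-drug control; IC50 from 4-parameter fit.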
Take `C[C@H]1CNC[C@H](CCc2c(F)cccc2NC(=O)[C@@H](N)C(c2cccc(F)c2)c2cccc(F)c2)N1S(=O)(=O)C1CC1` [Example 158, N-(2-{2-[(2S,6S)-1-(cyclopropylsulfonyl)-6-methylpiperazin-2-yl]ethyl}-3-fluorophenyl)-3-fluoro-β-(3-fluorophenyl)-L-phenylalaninamide]: the IC50 is 75 nM.

Regarding `COC(=O)N[C@H](C(=O)Nc1cccc(F)c1CC[C@H]1CNC[C@H](C)N1S(=O)(=O)C1CC1)C(c1cccc(F)c1)c1cccc(F)c1` [Example 159, N-(2-{2-[(2S,6S)-1-(cyclopropylsulfonyl)-6-methylpiperazin-2-yl]ethyl}-3-fluorophenyl)-3-fluoro-β-(3-fluorophenyl)-Nα-(methoxycarbonyl)-L-phenylalaninamide], the IC50 was 42 nM.

Regarding `C[C@@H]1CNC[C@H](CCc2c(F)cccc2NC(=O)[C@@H](N)[C@@H](c2ccc(Cl)cc2)C2CCOCC2)N1S(C)(=O)=O` [Example 160, (βR)-4-chloro-N-(3-fluoro-2-{2-[(2S,6R)-6-methyl-1-(methylsulfonyl)piperazin-2-yl]ethyl}phenyl)-β-(tetrahydro-2H-pyran-4-yl)-L-phenylalaninamide], the IC50 is 190 nM.

Regarding `COc1ccc(S(=O)(=O)N2[C@@H](CCc3c(F)cccc3NC(=O)[C@@H](N)[C@H](c3cccc(F)c3)c3cccc(Cl)c3)CNC[C@@H]2C)cc1` [Example 162, (βR)-3-chloro-N-[3-fluoro-2-(2-{(2S,6S)-1-[(4-methoxyphenyl)sulfonyl]-6-methylpiperazin-2-yl}ethyl)phenyl]-β-(3-fluorophenyl)-L-phenylalaninamide], the IC50 came to 22 nM.

In the case of `COC(=O)N[C@H](C(=O)Nc1cccc(F)c1CC[C@H]1CNC[C@H](C)N1S(=O)(=O)c1ccc(OC)cc1)[C@H](c1cccc(F)c1)c1cccc(Cl)c1` [Example 163, (βR)-3-chloro-N-[3-fluoro-2-(2-{(2S,6S)-1-[(4-methoxyphenyl)sulfonyl]-6-methylpiperazin-2-yl}ethyl)phenyl]-β-(3-fluorophenyl)-Nα-(methoxycarbonyl)-L-phenylalaninamide], the IC50 came to 20 nM.

On to `COc1ccc([C@H](c2ccc(Cl)cc2)[C@H](N)C(=O)Nc2cccc(F)c2CC[C@H]2CNC[C@H](C)N2S(C)(=O)=O)cn1` [Example 164, (βS)-4-chloro-N-(3-fluoro-2-{2-[(2S,6S)-6-methyl-1-(methylsulfonyl)piperazin-2-yl]ethyl}phenyl)-β-(6-methoxypyridin-3-yl)-L-phenylalaninamide], for which the IC50 is 37 nM.

Turning to `COC(=O)N[C@H](C(=O)Nc1cccc(F)c1CC[C@H]1CNC[C@H](C)N1S(C)(=O)=O)[C@@H](c1ccc(Cl)cc1)c1ccc(OC)nc1` [Example 165, (βS)-4-chloro-N-(3-fluoro-2-{2-[(2S,6S)-6-methyl-1-(methylsulfonyl)piperazin-2-yl]ethyl}phenyl)-Nα-(methoxycarbonyl)-β-(6-methoxypyridin-3-yl)-L-phenylalaninamide], the IC50 amounted to 17 nM.

Take `C[C@H]1CNC[C@H](CCc2c(F)cncc2NC(=O)[C@@H](N)[C@@H](c2ccc(Cl)cc2)c2cccc(F)c2)N1S(=O)(=O)C1CC1` [Example 166, (βS)-4-chloro-N-(4-{2-[(2S,6S)-1-(cyclopropylsulfonyl)-6-methylpiperazin-2-yl]ethyl}-5-fluoropyridin-3-yl)-β-(3-fluorophenyl)-L-phenylalaninamide]: the IC50 is 29 nM.

In the case of `C[C@H]1CNC[C@H](CCc2c(F)cccc2NC(=O)[C@@H](N)[C@@H](c2ccc(Cl)cc2)c2cccc(F)c2)N1S(=O)(=O)C1CC1` [Example 167, (βS)-4-chloro-N-(2-{2-[(2S,6S)-1-(cyclopropylsulfonyl)-6-methylpiperazin-2-yl]ethyl}-3-fluorophenyl)-β-(3-fluorophenyl)-L-phenylalaninamide], the IC50 was determined as 31 nM.

In the case of `COC(=O)N[C@H](C(=O)Nc1cccc(F)c1CC[C@H]1CNC[C@H](C)N1S(=O)(=O)C1CC1)[C@@H](c1ccc(Cl)cc1)c1cccc(F)c1` [Example 168, (βS)-4-chloro-N-(2-{2-[(2S,6S)-1-(cyclopropylsulfonyl)-6-methylpiperazin-2-yl]ethyl}-3-fluorophenyl)-β-(3-fluorophenyl)-Nα-(methoxycarbonyl)-L-phenylalaninamide], the IC50 was determined as 19 nM.

With `C[C@@H]1CNC[C@H](CCc2c(F)cccc2NC(=O)[C@@H](N)[C@H](c2cccc(F)c2)c2cccc(Cl)c2)N1S(C)(=O)=O` [Example 169, (βR)-3-chloro-N-(3-fluoro-2-{2-[(2S,6R)-6-methyl-1-(methylsulfonyl)piperazin-2-yl]ethyl}phenyl)-β-(3-fluorophenyl)-L phenylalaninamide], the IC50 was 170 nM.

`C[C@H]1CNC[C@H](CCc2c(F)cccc2NC(=O)[C@@H](N)C(c2cccc(F)c2)c2cccc(F)c2)N1S(C)(=O)=O` [Example 170, 3-fluoro-N-(3-fluoro-2-{2-[(2S,6S)-6-methyl-1-(methylsulfonyl)piperazin-2-yl]ethyl}phenyl)-β-(3-fluorophenyl)-L-phenylalaninamide]: the IC50 stood at 60 nM.

On to `COC(=O)N[C@H](C(=O)Nc1cccc(F)c1CC[C@H]1CNC[C@H](C)N1S(C)(=O)=O)C(c1cccc(F)c1)c1cccc(F)c1` [Example 171, 3-fluoro-N-(3-fluoro-2-{2-[(2S,6S)-6-methyl-1-(methylsulfonyl)piperazin-2-yl]ethyl}phenyl)-β-(3-fluorophenyl)-Nα-(methoxycarbonyl)-L-phenylalaninamide], for which the IC50 came out at 26 nM.

As to `C[C@H]1CNC[C@H](CCc2c(F)cccc2NC(=O)[C@@H](N)[C@H](c2cccc(F)c2)c2cccc(Cl)c2)N1S(C)(=O)=O` [Example 172, (βR)-3-chloro-N-(3-fluoro-2-{2-[(2S,6S)-6-methyl-1-(methylsulfonyl)piperazin-2-yl]ethyl}phenyl)-β-(3-fluorophenyl)-L-phenylalaninamide], the IC50 was 180 nM.

Consider `COC(=O)N[C@H](C(=O)Nc1cccc(F)c1CC[C@H]1CNC[C@@H](C)N1S(C)(=O)=O)[C@H](c1cccc(F)c1)c1cccc(Cl)c1` [Example 173, (βR)-3-chloro-N-(3-fluoro-2-{2-[(2S,6R)-6-methyl-1-(methylsulfonyl)piperazin-2-yl]ethyl}phenyl)-β-(3-fluorophenyl)-Nα-(methoxycarbonyl)-L-phenylalaninamide], for which the IC50 worked out at 90 nM.

As for `COC(=O)N[C@H](C(=O)Nc1cccc(F)c1CC[C@H]1CNC[C@H](C)N1S(C)(=O)=O)[C@H](c1cccc(F)c1)c1cccc(Cl)c1` [Example 174, (βR)-3-chloro-N-(3-fluoro-2-{2-[(2S,6S)-6-methyl-1-(methylsulfonyl)piperazin-2-yl]ethyl}phenyl)-β-(3-fluorophenyl)-Nα-(methoxycarbonyl)-L-phenylalaninamide], the IC50 is 99 nM.

In the case of `COC(=O)N[C@H](C(=O)Nc1cccc(F)c1CC[C@H]1CNC[C@H](C)N1S(=O)(=O)C1CC1)[C@H](c1cccc(F)c1)c1cccc(Cl)c1` [Example 175, (βR)-3-chloro-N-(2-{2-[(2S,6S)-1-(cyclopropylsulfonyl)-6-methylpiperazin-2-yl]ethyl}-3-fluorophenyl)-β-(3-fluorophenyl)-Nα-(methoxycarbonyl)-L-phenylalaninamide], the IC50 turned out to be 110 nM.

With `C[C@H]1CNC[C@H](CCc2c(F)cccc2NC(=O)[C@@H](N)[C@H](c2cccc(F)c2)c2cccc(Cl)c2)N1S(=O)(=O)C1CC1` [Example 176, (βR)-3-chloro-N-(2-{2-[(2S,6S)-1-(cyclopropylsulfonyl)-6-methylpiperazin-2-yl]ethyl}-3-fluorophenyl)-β-(3-fluorophenyl)-L-phenylalaninamide], the IC50 worked out at 190 nM.

Consider `CC(C)[C@H](c1ccc(Cl)cc1)[C@H](N)C(=O)Nc1cncc(F)c1CC[C@H]1CNC[C@H](C)N1S(=O)(=O)C1CC1` [Example 177, (βR)-4-chloro-N-(4-{2-[(2S,6S)-1-(cyclopropylsulfonyl)-6-methylpiperazin-2-yl]ethyl}-5-fluoropyridin-3-yl)-β-(1-methylethyl)-L-phenylalaninamide], for which the IC50 came to 95 nM.

As to `CC(C)[C@H](c1ccc(Cl)cc1)[C@H](N)C(=O)Nc1cncc(F)c1CC[C@H]1CNC[C@@H](C)N1S(=O)(=O)C1CC1` [Example 178, (βR)-4-chloro-N-(4-{2-[(2S,6R)-1-(cyclopropylsulfonyl)-6-methylpiperazin-2-yl]ethyl}-5-fluoropyridin-3-yl)-β-(1-methylethyl)-L-phenylalaninamide], the IC50 came to 340 nM.

As for `COC(=O)N[C@H](C(=O)Nc1cncc(F)c1CC[C@H]1CNC[C@H](C)N1S(=O)(=O)C1CC1)[C@@H](c1ccc(Cl)cc1)C(C)C` [Example 179, (βR)-4-chloro-N-(4-{2-[(2S,6S)-1-(cyclopropylsulfonyl)-6-methylpiperazin-2-yl]ethyl}-5-fluoropyridin-3-yl)-Nα-(methoxycarbonyl)-β-(1-methylethyl)-L-phenylalaninamide], the IC50 stood at 33 nM.

Take `COC(=O)N[C@H](C(=O)Nc1cncc(F)c1CC[C@H]1CNC[C@@H](C)N1S(=O)(=O)C1CC1)[C@@H](c1ccc(Cl)cc1)C(C)C` [Example 180, (βR)-4-chloro-N-(4-{2-[(2S,6R)-1-(cyclopropylsulfonyl)-6-methylpiperazin-2-yl]ethyl}-5-fluoropyridin-3-yl)-Nα-(methoxycarbonyl)-β-(1-methylethyl)-L-phenylalaninamide]: the IC50 came out at 69 nM.

For `C[C@@H]1CNC[C@H](CCc2c(F)cccc2NC(=O)[C@@H](N)C(c2cccc(F)c2)c2cccc(F)c2)N1S(=O)(=O)C1CC1` [Example 181, N-(2-{2-[(2S,6R)-1-(cyclopropylsulfonyl)-6-methylpiperazin-2-yl]ethyl}-3-fluorophenyl)-3-fluoro-β-(3-fluorophenyl)-L-phenylalaninamide], the IC50 worked out at 170 nM.
